SMILES strings stand for the structures.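 1) Cells in 96-well plates. 2) Compound, 48 h, 5 concentrations. 3) Linear interpolation between surrounding doses. 4) Unreached endpoint = highest concentration. TGI marks complete inhibition of growth.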

Test systems include RXF 393 renal; HS 578T breast; SNB-75 CNS; SNB-19 CNS; SR leukemia; HOP-62 NSCLC; KM12 colon; SW-620 colon; LOX IMVI melanoma; T-47D breast.
Common to all, as to assay: NCI-60 cell line screen, 48 h

As to `COc1c(C)c(C/C=C(\C)CC/C=C(\C)CCC=C(C)C)c(OC)c(OC)c1OC`, the TGI in the assay on RXF 393 renal, with HS 578T breast, in the assay with SNB-75 CNS, in the assay with SNB-19 CNS, in the assay on SR leukemia and in the assay with HOP-62 NSCLC was greater than 100 µM each time. Further, the TGI with KM12 colon, in the assay with SW-620 colon and in the assay on LOX IMVI melanoma was greater than 100 µM throughout.

For `CO[C@H]1C[C@H](O[C@H]2CC[C@]3(C=O)[C@H]4CC[C@]5(C)[C@@H](C6=CC(=O)OC6)CC[C@]5(O)[C@@H]4CC[C@]3(O)C2)O[C@H](C)[C@H]1O`, the TGI is 0.189 µM in the assay on RXF 393 renal; greater than 31.6 µM in the assay with HS 578T breast; 3.13 µM in the assay on SNB-75 CNS; 4.8 µM in the assay on SNB-19 CNS; 0.135 µM in the assay on HOP-62 NSCLC; 1.93 µM in the assay on KM12 colon. In addition, the TGI with T-47D breast came out at 5.31 µM; with SW-620 colon, 2.71 µM; with LOX IMVI melanoma, 8.31 µM.

For the molecule `Nc1ncnc2c1ncn2Cc1cccc(CCl)c1`, the TGI in the assay on RXF 393 renal is 18.8 µM; in the assay on HS 578T breast, greater than 100 µM; in the assay with SNB-75 CNS, greater than 100 µM; in the assay with SR leukemia, 46 µM; with HOP-62 NSCLC, 30.5 µM; with KM12 colon it was 33 µM. Also, the TGI in the assay on SW-620 colon came to 29.9 µM; in the assay on LOX IMVI melanoma, 71.7 µM.

With `CC1(C2CCC3(C)OC3C2)CO1` (stereo not given), the TGI in the assay on RXF 393 renal, with SNB-75 CNS, with SNB-19 CNS, with SR leukemia, with HOP-62 NSCLC and in the assay on KM12 colon was greater than 100 µM each time. The TGI in the assay on SW-620 colon and in the assay on LOX IMVI melanoma was greater than 100 µM each time.

Consider `O=C1c2ccccc2-c2[nH]c3cn[nH]c(=O)c3c21`, for which the TGI in the assay on HS 578T breast, in the assay with SNB-75 CNS, in the assay with SNB-19 CNS, with SR leukemia, with HOP-62 NSCLC and in the assay on KM12 colon was greater than 100 µM each time. The TGI in the assay with T-47D breast, in the assay on SW-620 colon and with LOX IMVI melanoma was greater than 100 µM each time.

For the molecule `NC(=O)CO/N=C1/C(c2c(O)[nH]c3ccccc23)=Nc2ccccc21`, the TGI is greater than 100 µM with HS 578T breast; greater than 100 µM in the assay with SNB-75 CNS; greater than 100 µM with SNB-19 CNS; greater than 56.9 µM in the assay on SR leukemia; greater than 100 µM in the assay on HOP-62 NSCLC; greater than 100 µM in the assay with KM12 colon. Further, the TGI in the assay on SW-620 colon and with LOX IMVI melanoma was greater than 100 µM throughout.

As for `Cc1cc2cc3c(cc2c(-c2ccc(N)cc2)n1)OCO3`, the TGI in the assay with HS 578T breast is greater than 100 µM; in the assay on SNB-19 CNS, greater than 100 µM; in the assay with SR leukemia, 52.5 µM; with HOP-62 NSCLC, greater than 100 µM; in the assay with KM12 colon, greater than 100 µM; in the assay on T-47D breast, greater than 100 µM. The TGI in the assay with SW-620 colon is greater than 100 µM.

As to `CC(=O)/C(=C\c1ccc(Cl)c(Cl)c1)C(=O)C(C)CN(C)C` (stereo not given), the TGI with SNB-19 CNS was 5.56 µM; with SR leukemia, 5.21 µM; in the assay on HOP-62 NSCLC it was 41.1 µM; in the assay with KM12 colon, 5.35 µM; in the assay on T-47D breast it was 12.3 µM; in the assay on SW-620 colon it was 9.01 µM. The same molecule gave a TGI in the assay with LOX IMVI melanoma of 6.14 µM.

`O=C(NNCc1ccc(Cl)cc1)Nc1cccc2ccccc12`: the TGI in the assay on RXF 393 renal, with SNB-75 CNS, with SNB-19 CNS, with SR leukemia, in the assay with HOP-62 NSCLC and in the assay with KM12 colon was greater than 100 µM each time. Moreover, the TGI with T-47D breast, with SW-620 colon and with LOX IMVI melanoma was greater than 100 µM in each case.

Turning to `CN1C(=O)C(O)CC1c1cccc(C(F)(F)F)c1` (stereo not given), the TGI in the assay on RXF 393 renal, in the assay with HS 578T breast, with SNB-75 CNS, in the assay with SNB-19 CNS, with HOP-62 NSCLC and in the assay on KM12 colon was greater than 100 µM throughout. Also, the TGI in the assay with T-47D breast, in the assay with SW-620 colon and in the assay with LOX IMVI melanoma was greater than 100 µM in each case.

`COc1ccc2nc3n(c2c1)CCc1cc(OC)c(OC)cc1-3`: the TGI with RXF 393 renal, in the assay with HS 578T breast, with SNB-75 CNS, in the assay with SNB-19 CNS, with HOP-62 NSCLC and with KM12 colon was greater than 100 µM throughout. The TGI in the assay with T-47D breast, in the assay with SW-620 colon and in the assay on LOX IMVI melanoma was greater than 100 µM each time.

Consider `CC(C)OC1OC(CO)C(O)CC1n1cc(F)c(=O)[nH]c1=O` (stereo not given), for which the TGI with RXF 393 renal, with HS 578T breast, with SNB-75 CNS, in the assay on SNB-19 CNS, in the assay on KM12 colon and with T-47D breast was greater than 100 µM in each case. Further, the TGI in the assay on SW-620 colon and in the assay with LOX IMVI melanoma was greater than 100 µM each time.

Take `CC1CC/C(=C\c2ccc(Cl)cc2)c2nc(N)c(C#N)c(-c3ccc(Cl)cc3)c21` (stereo not given): the TGI with SNB-75 CNS was greater than 100 µM; in the assay with SNB-19 CNS, 69.5 µM; with SR leukemia it was greater than 100 µM; in the assay with HOP-62 NSCLC, greater than 100 µM; in the assay on KM12 colon it was greater than 100 µM; with T-47D breast, greater than 100 µM. Besides, the TGI in the assay on SW-620 colon and with LOX IMVI melanoma was greater than 100 µM each time.

With `COC(=O)CCCC(=O)NC1=C(NCc2ccccc2)C(=O)c2ccccc2C1=O`, the TGI in the assay on HS 578T breast, in the assay on SNB-75 CNS, with SNB-19 CNS, in the assay with SR leukemia, in the assay on KM12 colon and in the assay with T-47D breast was greater than 100 µM each time. For the same molecule, the TGI in the assay with SW-620 colon and in the assay with LOX IMVI melanoma was greater than 100 µM in each case.

`CC(C)(C)C1CC[C@H](O)[C@H]([C@H](O)CC2CC(=O)N(c3ccccc3)C(=O)C2)C1` (stereo not given in full): the TGI in the assay on RXF 393 renal, in the assay with HS 578T breast, in the assay with SNB-75 CNS, in the assay on SNB-19 CNS, in the assay with SR leukemia and in the assay on HOP-62 NSCLC was greater than 100 µM in each case. The TGI with KM12 colon, with SW-620 colon and in the assay on LOX IMVI melanoma was greater than 100 µM in each case.
